What all share (assay type): cell-based
Assay [1] has as its system M. tuberculosis H37Rv (ATCC 27294). Kind of assay: microbe, parasite or virus in culture. The following applies: Mycobacterium tuberculosis, 120 h.
Assay [2] relates to A. baumannii (HUMC1 strain). Kind of assay: MIC by broth microdilution against A. baumannii. The following applies: Acinetobacter baumannii, RPMI medium supplemented with 10% FCS, 35° C. for 20 hours, visual reading.
Assay [3] deals with M. abscessus (ATCC 19977). Kind of assay: MIC by broth microdilution against M. abscessus. Conditions: Mycobacteroides abscessus.
The subject of a further assay is M. avium (ATCC 25291). Kind of assay: MIC against M. avium (resazurin assay). Conditions: Mycobacterium avium, ATCC25291, 168 h, Middlebrook 7H9 + ADC, 90% growth inhibition, 7 days.
The subject of another assay is M. xenopi (ATCC 19250). As to the kind of experiment: MIC against M. xenopi (resazurin assay). The following applies: Mycobacterium xenopi, ATCC19250, 168 h, Middlebrook 7H9 + ADC, 90% growth inhibition, 7 days.
Assay [4] has as its system S. aureus (UAMS-1625 strain). As to the kind of experiment: MIC by broth microdilution against S. aureus. Conditions: Staphylococcus aureus, 20 h, read-out: MIC S. aureus.
The subject of assay [5] is M. smegmatis (ATCC 700084). As to the kind of experiment: MIC against M. smegmatis (resazurin assay). Conditions: Mycolicibacterium smegmatis, ATCC700084, Middlebrook 7H9 + ADC, 90% growth inhibition, 20 h.
A further assay relates to M. kansasii (ATCC 12478). Kind of assay: MIC against M. kansasii (resazurin assay). Conditions: Mycobacterium kansasii, ATCC12478, 168 h, Middlebrook 7H9 + ADC, 90% growth inhibition, 7 days.
[6] abbreviates: ATCC19977, 20 h, ATCC 19977, Middlebrook 7H9 broth with ADC supplement, visual reading, read-out: MIC M. abscessus.

Molecules are shown by their SMILES. Values after ≈ are worked out from the molar mass of the structure shown. Like-named read-outs stand apart in the source and are kept apart here.

As to `CO[C@H]1/C=C/O[C@@]2(C)Oc3c(C)c(O)c4c(c3C2=O)C2=NC3(CCN(CC(C)C)CC3)NC2=C(NC(=O)/C(C)=C\C=C\[C@H](C)[C@H](O)[C@@H](C)[C@@H](O)[C@@H](C)[C@H](OC(=O)CN2CCCN(c3ccc(F)cc3)CC2)[C@@H]1C)C4=O` [Compound 34], the MIC in assay [1] amounted to 0.008 µg/mL (≈ 7.7 nM); in assay [2] it was 0.125 µg/mL (≈ 120 nM); in assay [3] (setting [6]) it was 0.5 µg/mL (≈ 481 nM); with M. avium (ATCC 25291), 0.5 µg/mL; with M. xenopi (ATCC 19250) it was 0.01 µg/mL; in assay [4], 2 µg/mL (≈ 1920 nM). The MIC in assay [5] is 0.11 µg/mL; with M. kansasii (ATCC 12478) it was 0.009 µg/mL.
For `CO[C@H]1/C=C/O[C@@]2(C)Oc3c(C)c(O)c4c(c3C2=O)C2=NC3(CCN(CC(C)C)CC3)NC2=C(NC(=O)/C(C)=C\C=C\[C@H](C)[C@H](O)[C@@H](C)[C@@H](O)[C@@H](C)[C@H](OC(=O)C[n+]2ccc(N(C)C)cc2)[C@@H]1C)C4=O` [Compound 35], the MIC in assay [1] was 0.0025 µg/mL; in assay [2], at most 0.002 µg/mL; in assay [3] (setting [6]) it was 0.5 µg/mL; with M. avium (ATCC 25291), 0.8 µg/mL; in the assay with M. xenopi (ATCC 19250) it was 0.04 µg/mL; in assay [4], 0.06 µg/mL. In addition, the MIC in assay [5] was determined as 0.03 µg/mL; with M. kansasii (ATCC 12478) it was 0.003 µg/mL.
For `CO[C@H]1/C=C/O[C@@]2(C)Oc3c(C)c(O)c4c(c3C2=O)C2=NC3(CCN(CC(C)C)CC3)NC2=C(NC(=O)/C(C)=C\C=C\[C@H](C)[C@H](O)[C@@H](C)[C@@H](O)[C@@H](C)[C@H](OC(=O)CN2CCC(N(C)c3ccccc3)CC2)[C@@H]1C)C4=O` [Compound 39], the MIC in assay [1] was 0.0001 µg/mL (≈ 0.0966 nM); in assay [2] it was at most 0.03 µg/mL; in assay [3] (ATCC19977, 20 h, read-out: MIC M. abscessus), 0.125 µg/mL (≈ 121 nM); with M. avium (ATCC 25291), 0.4 µg/mL; in the assay on M. xenopi (ATCC 19250), 0.003 µg/mL; in assay [4], 0.125 µg/mL (≈ 121 nM). The MIC in assay [5] is 0.06 µg/mL; in the assay on M. kansasii (ATCC 12478), 0.003 µg/mL.
Take `CO[C@H]1/C=C/O[C@@]2(C)Oc3c(C)c(O)c4c(c3C2=O)C2=NC3(CCN(CC(C)C)CC3)NC2=C(NC(=O)/C(C)=C\C=C\[C@H](C)[C@H](O)[C@@H](C)[C@@H](O)[C@@H](C)[C@H](OC(=O)CN2CCN(CC3CCCCC3)CC2)[C@@H]1C)C4=O` [Compound 40]: the MIC was 0.004 µg/mL (≈ 3.89 nM) in assay [1]; 0.125 µg/mL (≈ 122 nM) in assay [2]; 0.125 µg/mL (≈ 122 nM) in assay [3] (setting [6]); 0.19 µg/mL with M. avium (ATCC 25291); 0.05 µg/mL in the assay on M. xenopi (ATCC 19250); 0.25 µg/mL (≈ 243 nM) in assay [4]. In addition, the MIC in assay [5] amounted to 0.02 µg/mL; in the assay on M. kansasii (ATCC 12478) it was 0.008 µg/mL.
Regarding `CO[C@H]1/C=C/O[C@@]2(C)Oc3c(C)c(O)c4c(c3C2=O)C2=NC3(CCN(CC(C)C)CC3)NC2=C(NC(=O)/C(C)=C\C=C\[C@H](C)[C@H](O)[C@@H](C)[C@@H](O)[C@@H](C)[C@H](OC(C)=O)[C@@H]1C)C4=O` [Rifabutin], the MIC is 0.0003 µg/mL (≈ 0.354 nM) in assay [1]; at most 0.002 µg/mL in assay [2]; 8 µg/mL (≈ 9440 nM) in assay [3] (setting [6]); 8 µg/mL (≈ 9440 nM) in assay [3] (ATCC19977, tested M. abscessus strains, read-out: MIC value on M. abscessus); 0.15 µg/mL in the assay with M. avium (ATCC 25291); 0.01 µg/mL in the assay with M. xenopi (ATCC 19250). The MIC in assay [4] was found to be 0.016 µg/mL (≈ 18.9 nM); in assay [5], 0.14 µg/mL; with M. kansasii (ATCC 12478) it was 0.001 µg/mL.

For the origin of these results see US20250235434A1, “RIFABUTIN ANALOGS FOR THE TREATMENT OF DISEASE” (BIOVERSYS AG, priority 2022, published 2025).
